US20240317777A1, “NOVEL MACROCYCLIC AMINOPYRAZOLE COMPOUNDS AS CDK2 INHIBITORS” (Accutar Biotechnology Inc., priority 2023, published 2024)
Where two headings read alike, the source gives them in different places.

Experiments:
[1] = target: CDK9-CYCLIN T1 (Homo sapiens, UniProt P50750); assay: CDK protein kinase inhibition by ADP-Glo assay, CDK9-CYCLIN T1; type: biochemical; conditions: for IC50: ADP-Glo, 1000 μM ATP, read-out: CDK9-CYCLINT1, IC50
How it was run: (§1)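 Kinase/cyclin + peptide substrate + cpd + ATP (1000 μM)/MgCl2 (5 mM), HEPES pH 7.5, 22° C; quench, ADP-Glo reagent 45 min RT, detection reagent 10 min, luminescence.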

[2] = target: CDK6-CYCLIN D3 (Homo sapiens, UniProt Q00534); assay: CDK protein kinase inhibition by ADP-Glo assay, CDK6-CYCLIN D3; type: biochemical; conditions: for IC50: ADP-Glo, 1000 μM ATP, read-out: CDK6-CYCLIND3, IC50
Sequence of CDK6-CYCLIN D3 (Q00534 whole entry): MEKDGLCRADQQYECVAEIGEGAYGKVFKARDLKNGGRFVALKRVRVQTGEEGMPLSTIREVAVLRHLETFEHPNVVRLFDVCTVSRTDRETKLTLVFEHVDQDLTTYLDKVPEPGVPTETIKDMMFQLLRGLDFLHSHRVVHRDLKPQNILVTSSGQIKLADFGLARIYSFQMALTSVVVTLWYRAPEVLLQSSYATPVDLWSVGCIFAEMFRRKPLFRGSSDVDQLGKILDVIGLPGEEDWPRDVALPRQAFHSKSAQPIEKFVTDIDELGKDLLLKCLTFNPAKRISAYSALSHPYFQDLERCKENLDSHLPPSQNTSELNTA
Sequence of CDK6-CYCLIN D3 (P30281 whole entry partner): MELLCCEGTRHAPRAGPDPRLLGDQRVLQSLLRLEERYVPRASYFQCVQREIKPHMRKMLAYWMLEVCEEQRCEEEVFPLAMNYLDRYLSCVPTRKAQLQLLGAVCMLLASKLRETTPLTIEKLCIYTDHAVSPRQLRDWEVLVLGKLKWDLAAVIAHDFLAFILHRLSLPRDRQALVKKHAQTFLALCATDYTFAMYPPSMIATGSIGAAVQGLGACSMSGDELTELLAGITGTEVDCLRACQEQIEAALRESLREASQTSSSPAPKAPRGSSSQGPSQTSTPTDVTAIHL
How it was run: as §1

[3] = target: CDK4-CYCLIN D1 (Homo sapiens, UniProt P11802); assay: CDK protein kinase inhibition by ADP-Glo assay, CDK4-CYCLIN D1; type: biochemical; conditions: for IC50: ADP-Glo, 1000 μM ATP, read-out: CDK4-CYCLIND1, IC50
Sequence of CDK4-CYCLIN D1 (P11802 whole entry): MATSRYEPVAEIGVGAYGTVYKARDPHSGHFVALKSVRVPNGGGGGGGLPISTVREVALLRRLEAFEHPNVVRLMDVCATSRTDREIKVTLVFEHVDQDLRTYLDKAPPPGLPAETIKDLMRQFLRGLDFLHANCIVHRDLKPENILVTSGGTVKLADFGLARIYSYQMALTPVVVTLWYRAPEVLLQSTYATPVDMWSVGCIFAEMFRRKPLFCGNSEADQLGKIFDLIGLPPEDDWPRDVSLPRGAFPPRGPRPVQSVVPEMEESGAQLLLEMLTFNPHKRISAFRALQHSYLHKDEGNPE
Sequence of CDK4-CYCLIN D1 (P24385 whole entry partner): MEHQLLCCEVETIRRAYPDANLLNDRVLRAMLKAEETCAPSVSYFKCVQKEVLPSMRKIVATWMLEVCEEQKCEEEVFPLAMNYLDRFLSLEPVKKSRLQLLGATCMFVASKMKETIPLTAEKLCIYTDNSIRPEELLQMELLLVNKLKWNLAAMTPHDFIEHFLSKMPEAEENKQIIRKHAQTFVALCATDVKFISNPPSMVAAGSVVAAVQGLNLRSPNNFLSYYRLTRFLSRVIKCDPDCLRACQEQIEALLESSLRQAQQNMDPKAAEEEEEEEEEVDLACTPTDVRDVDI
How it was run: as §1

[4] = target: CDK1-CYCLIN B (Homo sapiens, UniProt P06493); assay: CDK protein kinase inhibition by ADP-Glo assay, CDK1-CYCLIN B; type: biochemical; conditions: for IC50: ADP-Glo, 1000 μM ATP, read-out: CDK1-CYCLINB, IC50
Sequence of CDK1-CYCLIN B (P06493 whole entry): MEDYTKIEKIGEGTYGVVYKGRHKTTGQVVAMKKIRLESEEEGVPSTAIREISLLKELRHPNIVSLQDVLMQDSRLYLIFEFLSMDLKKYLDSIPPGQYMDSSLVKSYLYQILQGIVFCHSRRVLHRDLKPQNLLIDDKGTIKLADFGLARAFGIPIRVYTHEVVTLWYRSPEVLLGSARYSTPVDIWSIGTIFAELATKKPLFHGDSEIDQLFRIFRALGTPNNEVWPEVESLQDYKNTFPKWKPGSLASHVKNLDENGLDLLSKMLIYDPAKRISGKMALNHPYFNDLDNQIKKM
Sequence of CDK1-CYCLIN B (P14635 whole entry partner): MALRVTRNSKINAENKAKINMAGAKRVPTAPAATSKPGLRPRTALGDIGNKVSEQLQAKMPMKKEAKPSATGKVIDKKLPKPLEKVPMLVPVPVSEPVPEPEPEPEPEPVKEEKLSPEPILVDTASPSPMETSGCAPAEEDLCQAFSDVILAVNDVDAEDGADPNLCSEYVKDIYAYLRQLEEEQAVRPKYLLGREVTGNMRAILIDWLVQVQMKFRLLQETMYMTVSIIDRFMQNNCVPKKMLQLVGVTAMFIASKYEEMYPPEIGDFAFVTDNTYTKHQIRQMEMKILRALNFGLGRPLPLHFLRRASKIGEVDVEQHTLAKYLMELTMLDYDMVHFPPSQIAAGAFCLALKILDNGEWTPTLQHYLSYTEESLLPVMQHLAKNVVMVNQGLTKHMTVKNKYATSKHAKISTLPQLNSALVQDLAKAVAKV
How it was run: as §1

[5] = target: CDK2-CYCLIN E1 (Homo sapiens, UniProt P24941); assay: CDK protein kinase inhibition by ADP-Glo assay, CDK2-CYCLIN E1; type: biochemical; conditions: ADP-Glo, 1000 μM ATP, read-out: CDK2-CYCLINE, IC50
How it was run: as §1

[6] = test system: CCNE1-normal SKOV3 cells; assay: Cell growth inhibition of CCNE1-normal SKOV3 cells (CellTiter-Glo); type: cell-based; conditions: Homo sapiens, SK-OV-3, 144 h, 6 days
How it was run: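 Growth was measured by CellTiter-Glo luminescence after 6 days' compound exposure at 37 °C. Cells were plated one day before dosing at 1000 per well in medium with 10% FBS, and compounds were diluted from DMSO stocks.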

[7] = test system: CCNE1-amplified OVCAR3 cells; assay: Cell growth inhibition of CCNE1-amplified OVCAR3 cells (CellTiter-Glo); type: cell-based; conditions: Homo sapiens, OVCAR-3, 144 h, 6 days
How it was run: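 Growth read-out was CellTiter-Glo luminescence, taken after 10 min at room temperature at the end of a 6-day compound exposure at 37 °C. Compounds were diluted from DMSO stocks across various concentrations.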

[8] = test system: Phospho-Rb (Ser807/811) in OVCAR3 cells; assay: Phospho-Rb expression inhibition in OVCAR3 cells quantified by In Cell Western; type: cell-based; conditions: Homo sapiens, OVCAR-3, 24 hours, read-out: OVCAR-3 pRb IC50
How it was run: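 In-cell western: after 24 h compound exposure at 37° C, fixed OVCAR3 cells co-stained for pRb Ser807/811 (800 nm channel) and total Rb (680 nm channel), imaged by LI-COR Odyssey.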

Sequence of CDK9-CYCLIN T1 (P50750 whole entry): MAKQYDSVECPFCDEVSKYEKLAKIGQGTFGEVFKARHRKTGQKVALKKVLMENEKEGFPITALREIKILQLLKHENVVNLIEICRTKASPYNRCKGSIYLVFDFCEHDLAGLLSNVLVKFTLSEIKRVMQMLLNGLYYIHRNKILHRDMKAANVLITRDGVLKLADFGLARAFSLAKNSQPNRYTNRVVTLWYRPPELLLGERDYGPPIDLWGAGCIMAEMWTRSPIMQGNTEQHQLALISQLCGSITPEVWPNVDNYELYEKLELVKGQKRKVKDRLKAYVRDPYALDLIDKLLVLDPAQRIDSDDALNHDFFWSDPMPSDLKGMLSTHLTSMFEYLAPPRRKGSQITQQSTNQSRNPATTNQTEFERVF
Sequence of CDK9-CYCLIN T1 (O60563 whole entry partner): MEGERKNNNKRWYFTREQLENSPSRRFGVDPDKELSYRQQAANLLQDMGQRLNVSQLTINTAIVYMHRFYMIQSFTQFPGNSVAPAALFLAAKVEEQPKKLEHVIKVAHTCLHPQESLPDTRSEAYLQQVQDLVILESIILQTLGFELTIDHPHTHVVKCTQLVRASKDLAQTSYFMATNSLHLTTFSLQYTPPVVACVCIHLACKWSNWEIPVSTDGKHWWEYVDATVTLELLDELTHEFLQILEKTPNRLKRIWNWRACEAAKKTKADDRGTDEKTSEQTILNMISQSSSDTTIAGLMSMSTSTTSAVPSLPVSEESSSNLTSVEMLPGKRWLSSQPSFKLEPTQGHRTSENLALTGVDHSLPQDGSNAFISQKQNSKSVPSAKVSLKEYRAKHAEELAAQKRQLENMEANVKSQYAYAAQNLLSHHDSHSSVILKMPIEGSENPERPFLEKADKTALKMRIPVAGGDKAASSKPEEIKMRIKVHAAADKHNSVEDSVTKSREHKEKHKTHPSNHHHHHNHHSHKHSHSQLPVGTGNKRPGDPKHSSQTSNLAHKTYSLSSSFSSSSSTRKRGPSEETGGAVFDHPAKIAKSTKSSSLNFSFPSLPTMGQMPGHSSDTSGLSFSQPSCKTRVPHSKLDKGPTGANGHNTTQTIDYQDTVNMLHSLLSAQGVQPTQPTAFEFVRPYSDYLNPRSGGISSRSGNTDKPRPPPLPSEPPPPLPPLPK

C[C@@H]1Oc2cncc(c2)Nc2cc(n[nH]2)[C@H]2CC[C@H](C2)OC(=O)N[C@H]2C[C@@H]1C2 [Compound 149, (1^1S,1^3R,7^1S,7^3R,6S,Z)-6-methyl-2^1H-5,10-dioxa-3,8-diaza-4(3,5)-pyridina-2(3,5)-pyrazola-1(1,3)-cyclopentana-7(1,3)-cyclobutanacyclodecaphan-9-one]
IC50 ([1]; Table 23): > 0.5 µM | CDK2 Fold selectivity, CDK9 ([1]; CDK2 versus CDK9, Table 24): C (C, >50 and ≤100) | IC50 ([2]; Table 23): > 0.5 µM | CDK2 Fold selectivity, CDK6 ([2]; CDK2 versus CDK6, Table 24): D (D, >20 and ≤50) | IC50 ([3]; Table 23): 0.1 to 0.5 µM | CDK2 Fold selectivity, CDK4 ([3]; CDK2 versus CDK4, Table 24): E (E, <20) | IC50 ([4]; Table 23): 0.1 to 0.5 µM | CDK2 Fold selectivity, CDK1 ([4]; CDK2 versus CDK1, Table 24): E (E, <20) | IC50 ([5]; Table 23): 0.01 to 0.05 µM | IC50 [6]: > 1.25 µM | IC50 [7]: 0.01 to 0.05 µM | IC50 [8]: 0.01 to 0.05 µM

C[C@H]1CCCOc2cc(ccn2)Nc2cc([nH]n2)[C@H]2CC[C@H](C2)OC(=O)N1 [Compound 9, (1^1S,1^3R,9S,Z)-9-methyl-2^1H-5,12-dioxa-3,10-diaza-4(4,2)-pyridina-2(3,5)-pyrazola-1(1,3)-cyclopentanacyclododecaphan-11-one]
IC50 ([1]; Table 7): > 0.5 µM | IC50 ([1]; Table 29): > 0.5 µM | CDK2 Fold Sensitivity, CDK9 ([1]; CDK2 versus CDK9, Table 8): B (B, >100 and ≤500) | CDK2 Fold selectivity, CDK9 ([1]; CDK2 versus CDK9, Table 30): C (C, >50 and ≤100) | IC50 ([2]; Table 7): > 0.5 µM | IC50 ([2]; Table 29): > 0.5 µM | CDK2 Fold Sensitivity, CDK6 ([2]; CDK2 versus CDK6, Table 8): B (B, >100 and ≤500) | CDK2 Fold selectivity, CDK6 ([2]; CDK2 versus CDK6, Table 30): C (C, >50 and ≤100) | IC50 ([3]; Table 7): > 0.5 µM | IC50 ([3]; Table 29): > 0.5 µM | CDK2 Fold Sensitivity, CDK4 ([3]; CDK2 versus CDK4, Table 8): B (B, >100 and ≤500) | CDK2 Fold selectivity, CDK4 ([3]; CDK2 versus CDK4, Table 30): C (C, >50 and ≤100) | IC50 ([4]; Table 7): 0.1 to 0.5 µM | IC50 ([4]; Table 29): 0.1 to 0.5 µM | CDK2 fold selectivity over CDK1 ([4]; CDK2 versus CDK1, Table 8): C (C, >50 and ≤100) | CDK2 Fold selectivity, CDK1 ([4]; CDK2 versus CDK1, Table 30): E (E, <20) | IC50 ([5]; Table 7): ≤ 0.01 µM | IC50 ([5]; Table 29): 0.01 to 0.05 µM | IC50 [6]: > 1.25 µM | IC50 [7]: 0.01 to 0.05 µM | IC50 [8]: 0.01 to 0.05 µM

C[C@H]1Oc2cc(ccn2)Nc2cc(n[nH]2)[C@H]2CC[C@H](C2)OC(=O)N[C@H]2C[C@H]1C2 [Compound 144, (1^1S,1^3R,7^1R,7^3R,6R,Z)-6-methyl-2^1H-5,10-dioxa-3,8-diaza-4(4,2)-pyridina-2(3,5)-pyrazola-1(1,3)-cyclopentana-7(1,3)-cyclobutanacyclodecaphan-9-one]
IC50 ([1]; Table 21): 0.1 to 0.5 µM | CDK2 Fold selectivity, CDK9 ([1]; CDK2 versus CDK9, Table 22): C (C, >50 and ≤100) | IC50 ([2]; Table 21): 0.1 to 0.5 µM | CDK2 Fold selectivity, CDK6 ([2]; CDK2 versus CDK6, Table 22): D (D, >20 and ≤50) | IC50 ([3]; Table 21): 0.1 to 0.5 µM | CDK2 Fold selectivity, CDK4 ([3]; CDK2 versus CDK4, Table 22): D (D, >20 and ≤50) | IC50 ([4]; Table 21): 0.1 to 0.5 µM | CDK2 Fold selectivity, CDK1 ([4]; CDK2 versus CDK1, Table 22): E (E, <20) | IC50 ([5]; Table 21): ≤ 0.01 µM | IC50 [6]: 0.25 to 1.25 µM | IC50 [7]: 0.002 to 0.01 µM | IC50 [8]: 0.002 to 0.01 µM

O=C1NC2(CCCCc3cc(ccn3)Nc3cc(n[nH]3)[C@H]3CC[C@H](C3)O1)CC2 [Compound 116, (1′S,3′R,Z)-spiro[cyclopropane-1,9′-12-oxa-3,10-diaza-4(4,2)-pyridina-2(3,5)-pyrazola-1(1,3)-cyclopentanacyclododecaphan]-11′-one]
IC50 ([1]; Table 17): 0.05 to 0.1 µM | CDK2 Fold selectivity, CDK9 ([1]; CDK2 versus CDK9, Table 18): D (D, >20 and ≤50) | IC50 ([2]; Table 17): 0.01 to 0.05 µM | CDK2 Fold selectivity, CDK6 ([2]; CDK2 versus CDK6, Table 18): E (E, <20) | IC50 ([3]; Table 17): 0.01 to 0.05 µM | CDK2 Fold selectivity, CDK4 ([3]; CDK2 versus CDK4, Table 18): E (E, <20) | IC50 ([4]; Table 17): 0.05 to 0.1 µM | CDK2 Fold selectivity, CDK1 ([4]; CDK2 versus CDK1, Table 18): D (D, >20 and ≤50) | IC50 ([5]; Table 17): ≤ 0.01 µM | IC50 [6]: 0.25 to 1.25 µM | IC50 [7]: 0.01 to 0.05 µM | IC50 [8]: 0.01 to 0.05 µM

C[C@@H]1CC/C=C/c2cc(ccn2)Nc2cc(n[nH]2)[C@H]2CC[C@H](C2)OC(=O)N1 [Compound 126, (1^1S,1^3R,2^4Z,5E,9R)-9-methyl-2^1H-12-oxa-3,10-diaza-4(4,2)-pyridina-2(3,5)-pyrazola-1(1,3)-cyclopentanacyclododecaphan-5-en-11-one]
IC50 ([1]; Table 19): 0.1 to 0.5 µM | CDK2 Fold selectivity, CDK9 ([1]; CDK2 versus CDK9, Table 20): E (E, <20) | IC50 ([2]; Table 19): 0.1 to 0.5 µM | CDK2 Fold selectivity, CDK6 ([2]; CDK2 versus CDK6, Table 20): E (E, <20) | IC50 ([3]; Table 19): 0.1 to 0.5 µM | CDK2 Fold selectivity, CDK4 ([3]; CDK2 versus CDK4, Table 20): E (E, <20) | IC50 ([4]; Table 19): 0.1 to 0.5 µM | CDK2 Fold selectivity, CDK1 ([4]; CDK2 versus CDK1, Table 20): E (E, <20) | IC50 ([5]; Table 19): 0.05 to 0.1 µM | IC50 [6]: 0.25 to 1.25 µM | IC50 [7]: 0.05 to 0.25 µM | IC50 [8]: 0.01 to 0.05 µM

O=C1NC2CC(/C=C/c3cc(ccn3)Nc3cc(n[nH]3)[C@H]3CC[C@H](C3)O1)C2 [Compound 172, (1^1S,1^3R,2^4Z,7^1R,7^3S,5E)-2^1H-10-oxa-3,8-diaza-4(4,2)-pyridina-2(3,5)-pyrazola-1(1,3)-cyclopentana-7(1,3)-cyclobutanacyclodecaphan-5-en-9-one]
IC50 ([1]; Table 25): ≤ 0.01 µM | CDK2 Fold selectivity, CDK9 ([1]; CDK2 versus CDK9, Table 26): E (E, <20) | IC50 ([2]; Table 25): 0.01 to 0.05 µM | CDK2 Fold selectivity, CDK6 ([2]; CDK2 versus CDK6, Table 26): E (E, <20) | IC50 ([3]; Table 25): ≤ 0.01 µM | CDK2 Fold selectivity, CDK4 ([3]; CDK2 versus CDK4, Table 26): E (E, <20) | IC50 ([4]; Table 25): ≤ 0.01 µM | CDK2 Fold selectivity, CDK1 ([4]; CDK2 versus CDK1, Table 26): E (E, <20) | IC50 ([5]; Table 25): ≤ 0.01 µM | IC50 [6]: 0.01 to 0.05 µM | IC50 [7]: 0.002 to 0.01 µM | IC50 [8]: ≤ 0.002 µM

O=C1NC2CC3(C2)CC(C3)Oc2cc(ccn2)Nc2cc(n[nH]2)[C@H]2CC[C@H](C2)O1 [Compound 128, (6^1S,6^3R,Z)-5^1H-2,7-dioxa-4,9-diaza-3(2,4)-pyridina-5(5,3)-pyrazola-6(1,3)-cyclopentana-1,10(1,3)-dicyclobutanadecaphan-8-one]
IC50 ([1]; Table 17): 0.01 to 0.05 µM | CDK2 Fold selectivity, CDK9 ([1]; CDK2 versus CDK9, Table 18): E (E, <20) | IC50 ([2]; Table 17): 0.01 to 0.05 µM | CDK2 Fold selectivity, CDK6 ([2]; CDK2 versus CDK6, Table 18): E (E, <20) | IC50 ([3]; Table 17): 0.01 to 0.05 µM | CDK2 Fold selectivity, CDK4 ([3]; CDK2 versus CDK4, Table 18): D (D, >20 and ≤50) | IC50 ([4]; Table 17): 0.01 to 0.05 µM | CDK2 Fold selectivity, CDK1 ([4]; CDK2 versus CDK1, Table 18): E (E, <20) | IC50 ([5]; Table 17): ≤ 0.01 µM | IC50 [6]: 0.25 to 1.25 µM | IC50 [7]: 0.002 to 0.01 µM | IC50 [8]: 0.002 to 0.01 µM
